The results in this text go back to patent publication US5004758A, “Water soluble camptothecin analogs useful for inhibiting the growth of animal tumor cells” (priority 1988, dated 1991).

The structures appear in SMILES notation. Counter-ions that a name gives are not always drawn. Like-named read-outs stand apart in the source and are kept apart here.

In one series the test system is iv L1210 leukemia. The settings on record: for ILS: iv L1210 (10^6 cells), Days 1 & 5, route ip in table head (iv).
Series [1] in a line: in vivo. Particulars: mouse, ip.
Protocol: (§1) For in vivo studies L1210 cells were implanted i.p. (10^6 per mouse)
(§2) and drugs were administered i.p. on Days 1 and 5. Increase in lifespan
(§3) (ILS) was based on median survival time of groups of 6 mice treated at th
maximally tolerated dose of the drugs.
Another series deals with ip L1210 leukemia. Put plainly: ip-implanted L1210 leukemia in mice.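 Note: each mouse received 10^6 L1210 cells intraperitoneally, with drug treatment also given by the i.p. route.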 The settings on record: ip L1210 (10^6 cells); drug i.p. Days 1 and 5 at maximally tolerated dose.
Series [2] in a line: in vivo. Particulars: mouse, iv.
Description: (§4) Animals were inoculated iv with 10^6 cells. Increase in lifespan (ILS) is based on median survival time of groups of 6 mice relative to untreated controls.
(§5) The protocols utilized for the evaluation of the antitumor activity of Formula (I) compounds are well established and widely utilized by those skilled in the art of assessing the activity of drugs in preclinical tumor models. These studies generally follow the protocols established by the National Cancer Institute as described by Geran et al., Cancer Chemotherapy Reports, Part 3, Vol. 3, 1-103, 1972.
(§6) Tumors used in these studies P388 leukemia, L1210 leukemia and Lewis lung carcinoma--are maintained by serial transplantation in syngeneic strains of mice, DBA/2 for the leukemias and C57B1/6 for Lewis lung carcinoma. The leukemias are serially transplanted i.p. as ascites cell suspensions while the Lewis lung carcinoma is serially transplanted as a s.c. solid tumor.
(§7) For therapeutic trials, tumors were aseptically removed from donor mice and prepared as suspensions for implantation into test animals which for each tumor are syngeneic female F1 hybrid B6D2F1 mice (C57B1/6×DBA/2). The inoculum level varies with the type of tumor: P388 leukemia is inoculated at 10^6 cells per mouse, L1210 leukemia at 10^5 or 10^6 cells per mouse, and Lewis lung carcinoma at 0.25 ml of a 10 percent (w:v) brei. […] After tumor inoculation, mice are randomized to treatment groups of 6 to 8 mice each. In each experiment, there are three groups of untreated control mice.
(§8) Drugs are dissolved or suspended in appropriate aqueous vehicles and given i.p. or i.v. on various treatment schedules over a range of dosage levels. Animals are housed in shoebox cages and monitored daily for mortality for 30 (L1210), 45 (P388) or 60 (Lewis lung) days.

Protocol for ip L1210 leukemia: as §1, §2, §3
maximally tolerated dose of the drugs.
Description for iv L1210 leukemia: as §4, §5, §6, §7, §8

Broadly, the ILS is how much longer treated animals lived than controls. The low end stands for little gain in survival, the high end for much gain in survival. With `CC[C@@](O)(C(=O)O)c1cc2n(c(=O)c1CO)Cc1cc3c(CN(C)C)c(O)ccc3nc1-2` [21S, Sodium Salt], the “fold less potent than the three acid salts” value with iv L1210 leukemia (by maximally tolerated dose, iv L1210) is “about 3.5 fold”. Besides, the ILS in the series with iv L1210 leukemia (6.5 mg/kg) is recorded as 33%; with iv L1210 leukemia (12 mg/kg) it was 67%; in the series with iv L1210 leukemia (19 mg/kg), 100%; in the series on iv L1210 leukemia (32 mg/kg), 133%; in the series with iv L1210 leukemia (54 mg/kg), 208%; with iv L1210 leukemia (90 mg/kg), “toxic”. Further, the MTD in the series “in vivo [1]” and in the series “in vivo [2]” was 54 mg/kg in each case. Moreover, the “In Vivo Antitumor Activity ILS (increase in lifespan)” value in the series with ip L1210 leukemia was over 200%.
